Results on four molecules are retold here after patent publication US20220281888A1, “BICYCLIC CARBOXYLATES AS MODULATORS OF TRANSPORTERS AND USES THEREOF” (NIROGY THERAPEUTICS, INC., priority 2019, published 2022).

For assay [1], the system named is panel of solid and haematological tumor cell lines (e.g., Hs578t, SiHa, MDA-MB-231). Kind of assay: MTS cell proliferation assay. It counts as cell-based. The settings on record: 72-96 hours incubation, 10 mM lactate medium or RPMI 1640 medium, cell line not given, read-out: Cytotoxicity [IC50: μM]. As to the method: The anti-proliferation effect of MCT inhibition was investigated across a panel of solid and haematological tumor cell lines. Cells were routinely cultured in their appropriate growth medium. On day 1, between 10,000-25,000 cells/well (e.g., Hs578t: 15,000 cells/well, SiHa: 10,000 cells/well, and MDA-MB-231: 25,000 cells/well) were plated into 96-well plates. 100 μL of phosphate buffered saline solution was added to the external wells to prevent media evaporation. Plates were incubated in growth medium overnight at 37° C. in the presence of 5% CO2. On day 2, dry weight compound stocks were dissolved to a concentration of 10 mM in 100% DMSO. Compounds were further diluted in the assay medium; 10 mM lactate medium (without glucose, pyruvate, and glutamine) or RPMI 1640 medium (without pyruvate and glutamine) to generate a final dose range of 1 nM to 10 μM. Growth medium in the 96-well plate was replaced with the assay medium (10 mM lactate medium or RPMI medium or appropriate medium), and compounds were added to each well in the plate at different concentrations via serial dilution or pre-prepared solutions in assay medium. […] The absorbance of the plates was read on a Spectramax M5e plate reader using […] measurement wavelength. Dose response curves were plotted and IC50 values were calculated using GraphPad Prism. […]
A general note: Tetrazolium assays rely on reduction of a dye to a coloured formazan, in cell work by metabolically active cells.

In assay [2] the test system is monocarboxylate transporters. Kind of assay: Lactate detection assay in tumor cell lines. As to conditions: intracellular lactate, Lactate-glo kit, 24 hours incubation; cell line not stated. It counts as cell-based. The protocol: Cells are maintained in their appropriate growth medium (RPMI medium with 2 g/L glucose, 2 mM L-glutamine supplemented with 10% FBS and P/S (growth medium). 15,000-25,000 cells were seeded into white 96-well plates in growth medium and incubated for 24 hours at 37° C. and 5% CO2. A duplicate plate was also seeded for normalization by an MTS assay. Dry weight compound stocks were dissolved to a concentration of 10 mM in 100% DMSO. Compounds were further diluted in the assay medium (Lactate media: 10 mM lactate, 5% FBS, and 1×P/S; Glucose media: RPMI, 5% FBS, and 1×P/S). Growth media was changed 24 hours later to assay medium containing 10 μM compound or vehicle (DMSO) control and incubated for 24 hours. Conditioned media was collected and the cells were washed in 200 μL ice-cold PBS. […] After a 5 minute incubation, 12.5 μL Neutralization solution (1 M Trizma) is incubated for 1 minute. Intracellular lactate measurements were performed using a Lactate-glo kit (Promega). Briefly, the lactate detection reagent is mixed immediately before use and 50 μL is pipetted into each well and incubated at room temperature for 1 hour. Lactate is oxidized by enzymatic reactions to generate light. The luminescence is recorded using a Spectramax M5e plate reader and the concentration of lactate is determined using a known concentration of spiked lactate in PBS using GraphPad Prism.

A word on the IC50: it is the concentration at which inhibition is half-maximal.

Turning to `CN(C(=O)Nc1ccc(Cl)c(Cl)c1)c1cc2oc(=O)c(C(=O)O)cc2s1` [Example 39, 2-(3-(3,4-dichlorophenyl)-1-methylureido)-5-oxo-5H-thieno[3,2-b]pyran-6-carboxylic acid], the IC50 in assay [1] is below 1 µM.
The molecule `CN(C(=O)NC1CCCCC1)c1cc2oc(=O)c(C(=O)O)cc2s1` [Example 7, 2-(3-cyclohexyl-1-methylureido)-5-oxo-5H-thieno[3,2-b]pyran-6-carboxylic acid] gave an IC50 in assay [2] below 1 µM.
Still for that read-out and setting: to `CCOc1ccccc1NC(=O)N(C)c1cc2oc(=O)c(C(=O)O)cc2s1` [Example 10, 2-(3-(2-ethoxyphenyl)-1-methylureido)-5-oxo-5H-thieno[3,2-b]pyran-6-carboxylic acid] belongs below 1 µM.
Consider `COc1cc(Cl)ccc1NC(=O)N(C)c1cc2oc(=O)c(C(=O)O)cc2s1` [Example 18, 2-(3-(4-chloro-2-methoxyphenyl)-1-methylureido)-5-oxo-5H-thieno[3,2-b]pyran-6-carboxylic acid], for which the IC50 in assay [1] is below 1 µM.
